Measured values as given in PubChem BioAssay AID1745844 (Carcinogenic Potency Database (CPDB), 2022).
Activity calls are given as the source filed them. No rule for the calls is given here.

Tested on: rodent lifetime carcinogenesis bioassay, tumor incidence TD50
Test: chronic cancer bioassays in animals – CPDB, compiled studies (AID 1745844)

C1CCCNCCC1
TD50 (rat, strain MRC, females, in drinking water, site: any site (literature study), lesion: several types, types named in the paper, dosed 75 weeks, study length 104 weeks): 15.8 mg/kg/day
TD50 (rat, strain MRC, males, in drinking water, site: any site (literature study), lesion: several types, types named in the paper, dosed 75 weeks, study length 104 weeks): 6.37 mg/kg/day

COC(N)=O
carcinogen call (mouse, strain B6C3F1, females, by gavage, site: any site (literature study), lesion: several types, types named in the paper, dosed 103 weeks, study length 104 weeks): negative (inactive)
TD50 (mouse, strain B6C3F1, females, by gavage, site: liver, lesion: hepatocellular adenoma + hepatocellular carcinoma + neoplastic nodule, dosed 103 weeks, study length 104 weeks): 4700 mg/kg/day
TD50 (mouse, strain B6C3F1, males, by gavage, site: any site (literature study), lesion: several types, types named in the paper, dosed 103 weeks, study length 104 weeks): 5220 mg/kg/day (inactive)
TD50 (mouse, strain B6C3F1, males, by gavage, site: liver, lesion: hepatocellular adenoma + hepatocellular carcinoma + neoplastic nodule, dosed 103 weeks, study length 104 weeks): 5080 mg/kg/day
TD50 (rat, strain Fischer 344, females, by gavage, site: liver, lesion: hepatocellular adenoma + hepatocellular carcinoma + neoplastic nodule, dosed 103 weeks, study length 104 weeks): 839 mg/kg/day
TD50 (rat, strain Fischer 344, females, by gavage, site: liver, lesion: hepatocellular carcinoma + neoplastic nodule, dosed 103 weeks, study length 104 weeks): 839 mg/kg/day
TD50 (rat, strain Fischer 344, females, by gavage, site: liver, lesion: hepatocellular carcinoma, dosed 52 weeks, study length 52 weeks): 53.4 mg/kg/day
TD50 (rat, strain Fischer 344, females, by gavage, site: liver, lesion: hepatocellular carcinoma, dosed 78 weeks, study length 78 weeks): 68.4 mg/kg/day
TD50 (rat, strain Fischer 344, females, by gavage, site: liver, lesion: neoplastic nodule, dosed 52 weeks, study length 52 weeks): 21.3 mg/kg/day
TD50 (rat, strain Fischer 344, females, by gavage, site: liver, lesion: neoplastic nodule, dosed 78 weeks, study length 78 weeks): 159 mg/kg/day
TD50 (rat, strain Fischer 344, females, by gavage, site: liver, lesion: neoplastic nodule, dosed 103 weeks, study length 104 weeks): 979 mg/kg/day
TD50 (rat, strain Fischer 344, males, by gavage, site: liver, lesion: hepatocellular adenoma + hepatocellular carcinoma + neoplastic nodule, dosed 103 weeks, study length 104 weeks): 2030 mg/kg/day
TD50 (rat, strain Fischer 344, males, by gavage, site: liver, lesion: hepatocellular carcinoma + neoplastic nodule, dosed 103 weeks, study length 104 weeks): 2030 mg/kg/day
TD50 (rat, strain Fischer 344, males, by gavage, site: liver, lesion: hepatocellular carcinoma, dosed 52 weeks, study length 52 weeks): 30.4 mg/kg/day
TD50 (rat, strain Fischer 344, males, by gavage, site: liver, lesion: hepatocellular carcinoma, dosed 78 weeks, study length 78 weeks): 47.8 mg/kg/day
TD50 (rat, strain Fischer 344, males, by gavage, site: liver, lesion: neoplastic nodule, dosed 52 weeks, study length 52 weeks): 40.7 mg/kg/day
TD50 (rat, strain Fischer 344, males, by gavage, site: liver, lesion: neoplastic nodule, dosed 78 weeks, study length 78 weeks): 494 mg/kg/day

CC1=C(/C=C/C(C)=C/C=C/C(C)=C/C(=O)O)C(C)(C)CCC1
carcinogen call (rat, strain Sprague-Dawley, females, i.p., site: any site (literature study), lesion: malignant tumor, dosed 104 weeks, study length 104 weeks): negative (inactive)
TD50 (rat, strain Sprague-Dawley, males, i.p., site: any site (literature study), lesion: malignant tumor, dosed 104 weeks, study length 104 weeks): 188 mg/kg/day (inactive)

COCCl
TD50 (hamster, strain Syrian Golden, males, inhaled, site: lung, lesion: adenocarcinoma, dosed 113 weeks, study length 124 weeks): 32.9 mg/kg/day
TD50 (hamster, strain Syrian Golden, males, inhaled, site: several sites, sites named in the paper, lesion: several types, types named in the paper, dosed 113 weeks, study length 124 weeks): 16.4 mg/kg/day
TD50 (rat, strain Sprague-Dawley, males, inhaled, site: several sites, sites named in the paper, lesion: several types, types named in the paper, dosed 113 weeks, study length 122 weeks): 5.5 mg/kg/day

CC(C)(Oc1ccc(C2CCCc3ccccc32)cc1)C(=O)O (configuration not stated)
carcinogen call (hamster, strain Syrian, MB strain, males, in feed, site: liver, lesion: several types, types named in the paper, dosed 60 weeks, study length 60 weeks): negative (inactive)
TD50 (rat, strain Fischer 344, males, in feed, site: liver, lesion: hepatocellular carcinoma, dosed 108 weeks, study length 108 weeks): 22.4 mg/kg/day
TD50 (rat, strain Fischer 344, males, in feed, site: pancreas, lesion: acinar-cell adenoma, dosed 108 weeks, study length 108 weeks): 207 mg/kg/day
TD50 (rat, strain Fischer 344, males, in feed, site: pancreas, lesion: acinar-cell carcinoma, dosed 108 weeks, study length 108 weeks): 428 mg/kg/day
TD50 (rat, strain Fischer 344, males, in feed, site: pancreas, lesion: several types, types named in the paper, dosed 108 weeks, study length 108 weeks): 132 mg/kg/day
TD50 (rat, strain Sprague-Dawley, males, in feed, site: liver, lesion: several types, types named in the paper, dosed 60 weeks, study length 60 weeks): 3.51 mg/kg/day
TD50 (rat, strain Wistar, females, in feed, site: liver, lesion: hepatocellular adenoma, dosed 70 weeks, study length 70 weeks): 55.5 mg/kg/day
TD50 (rat, strain Wistar, females, in feed, site: liver, lesion: hepatocellular carcinoma, dosed 55 weeks, study length 55 weeks): 163 mg/kg/day
TD50 (rat, strain Wistar, females, in feed, site: liver, lesion: hepatocellular carcinoma, dosed 70 weeks, study length 70 weeks): 92.3 mg/kg/day
TD50 (rat, strain Wistar, females, in feed, site: liver, lesion: several types, types named in the paper, dosed 55 weeks, study length 55 weeks): 163 mg/kg/day
TD50 (rat, strain Wistar, females, in feed, site: liver, lesion: several types, types named in the paper, dosed 70 weeks, study length 70 weeks): 36.6 mg/kg/day
TD50 (rat, strain Wistar, males, in feed, site: any site (literature study), lesion: one or several types, types not named, dosed 59 weeks, study length 59 weeks): 12.3 mg/kg/day
TD50 (rat, strain Wistar, males, in feed, site: liver, lesion: hepatocellular adenoma, dosed 57 weeks, study length 57 weeks): 38.8 mg/kg/day
TD50 (rat, strain Wistar, males, in feed, site: liver, lesion: hepatocellular adenoma, dosed 59 weeks, study length 59 weeks): 48 mg/kg/day
TD50 (rat, strain Wistar, males, in feed, site: liver, lesion: hepatocellular carcinoma, dosed 57 weeks, study length 57 weeks): 59.1 mg/kg/day
TD50 (rat, strain Wistar, males, in feed, site: liver, lesion: hepatocellular carcinoma, dosed 59 weeks, study length 59 weeks): 58.1 mg/kg/day
TD50 (rat, strain Wistar, males, in feed, site: liver, lesion: several types, types named in the paper, dosed 57 weeks, study length 57 weeks): 19.8 mg/kg/day
TD50 (rat, strain Wistar, males, in feed, site: liver, lesion: several types, types named in the paper, dosed 59 weeks, study length 59 weeks): 22.1 mg/kg/day
